Experimental data: US20220034908A1, “PHARMACEUTICAL COMPOSITION FOR PREVENTING OR TREATING FABRY DISEASE, CONTAINING TSP1 PROTEIN INHIBITOR AS ACTIVE INGREDIENT” (KOREA ADVANCED INSTITUTE OF SCIENCE AND TECHNOLOGY, priority 2018, published 2022)

Tests used:
Assay type in all cases: cell-based, human
[1] = system: TSP1, KDR and eNOS proteins in vascular endothelial cells differentiated from FB-iPSCs; assay: Western blotting of vasculopathy-related proteins in vascular endothelial cells differentiated from FB-iPSCs
Protocol: (§1) Particularly, the FB-iPSCs prepared in Example 1 were treated with Fabrazyme, a therapeutic agent for Fabry disease, and starvation media in various combinations. Pro-Prep solution (Intron Biotechnology, Korea) was added to each sample and reacted at 4° C., followed by centrifugation at 1300 rpm for 10 minutes to obtain a supernatant. The obtained supernatant was electrophoresed on acrylamide gel and transferred to a nitrocellulose membrane, followed by blocking with 4% skim milk. Then, anti-LC3 antibody (1:1000, Santacruz, USA) was treated thereto and reacted at 4° C. for 24 hours, followed by washing three times with TBS containing tween-20. The protein expression level was confirmed by the conventional Western blotting. The expression level of each protein was corrected using GAPDH as a control.
(§2) Particularly, the vascular endothelial cells prepared in Example 2 were treated with Fabrazyme, and Western blotting was performed in the same manner as described in Experimental Example <3-1>. At this time, anti-KDR antibody (1:1000, Cell Signaling Technologies, USA), anti-eNOS antibody (1:1000, Cell Signaling Technologies, USA) and anti-TSP1 antibody (1:1000, Santacruz, USA) were used as antibodies.
Particularly, using the control group treated with only Fabrazyme on the vascular endothelial cells prepared in Example 2 and the experimental group treated with Fabrazyme and SB431542, Western blotting was performed in the same manner as described in Experimental Example <3-1>. At this time, anti-TSP1 antibody (1:1000, Santacruz, USA), anti-KDR antibody (1:1000, Cell Signaling Technologies, USA) and anti-eNOS antibody (1:1000, Cell Signaling Technologies, USA) were used as antibodies.

[2] = system: vascular endothelial cells differentiated from FB-iPSCs; assay: Morphology of vascular endothelial cells differentiated from FB-iPSCs after TGF-β inhibitor treatment; settings: for therapeutic effect on vasculopathy in patients with Fabry disease: conclusion of Experimental Example 9, patient-derived vascular endothelial cells
Protocol: Particularly, the FB-iPSCs prepared in Example 1 were cultured in a feeder-free state for 3 days. Thereafter, the medium was exchanged with RPMI-1640 medium containing 1% B27, to which 50 ng/ml of activin A and 20 ng/ml of BPM4 were added as growth factors, and then the cells were cultured for 2 days to differentiate into mesoderm cells. The medium was exchanged with RPMI-1640 medium containing 0.5% B27, to which 50 ng/ml of VEGFA and 50 ng/ml of bFGF were added as growth factors, and then the cells were cultured for 2 days to differentiate into vascular progenitors. CD34 positive cells capable of differentiating into vascular endothelial cells were isolated from the induced vascular progenitors by performing magnetic activated cell sorting (MACS) using CD34 magnetic beads. The isolated CD34 positive cells were further cultured for 2 days in EGM-2 medium (Lonza, USA) containing 100 ng/ml of VEGF-A and 100 ng/ml of bFGF as growth factors to differentiate into vascular endothelial cells. Particularly, using the control group treated with only Fabrazyme on the vascular endothelial cells prepared in Example 2, the experimental group treated with only SB431542 (Cayman Chemical, USA), and the experimental group treated with Fabrazyme and SB431542, the morphology of the cells was confirmed. Particularly, using the control group treated with only Fabrazyme on the vascular endothelial cells prepared in Example 2, the experimental group treated with Fabrazyme and SB431542, and the experimental group treated with Fabrazyme and losartan (Cayman Chemical, USA), the morphology of the cells was confirmed.

[3] = system: vascular endothelial cells differentiated from FB-iPSCs; assay: Tube formation on matrigel (vasculogenesis) of vascular endothelial cells differentiated from FB-iPSCs; settings: SB431542 only or Fabrazyme and SB431542 vs Fabrazyme only; FIGS. 23a-23e
Protocol: On the other hand, 70 μl of matrigel (corning) stock solution was put in a 96-well plate and hardened at 37° C., and then 1×10^4 vascular endothelial cells prepared in Example 2 and EGM2 medium were added thereto to confirm the tube formation. Particularly, using the control group treated with only Fabrazyme on the vascular endothelial cells prepared in Example 2, the experimental group treated with only SB431542, and the experimental group treated with Fabrazyme and SB431542, The tube formation was confirmed in the same manner as described in Experimental Example <4-2>.

[4] = system: KDR, eNOS and TSP1 genes in vascular endothelial cells differentiated from normal iPSCs; assay: RT-PCR of vasculopathy-related genes after LysoGb3 treatment
Protocol: Particularly, the vascular endothelial cells differentiated from normal iPSCs were treated with LysoGb3 protein for 1, 3 or 5 days, and RNA was extracted from the cells using easy-BLUE (Intron). Then, RT-PCR was performed in the conventional manner to confirm the RNA expression levels of KDR, eNOS and TSP1 (Thrombospondin 1) genes related to vasculopathy. As a result, as shown in FIGS. 18a to 18c, the RNA expression levels of KDR, eNOS and TSP1 genes were increased 1 day after the treatment of LysoGb3 protein.

[5] = system: TSP1 protein in vascular endothelial cells differentiated from normal iPSCs; assay: Immunostaining of TSP1 protein expression location after LysoGb3 treatment; settings: FIG. 20
[6] = system: TSP1, KDR, eNOS and phospho-AKT in vascular endothelial cells differentiated from normal iPSCs; assay: Western blotting of vasculopathy-related proteins after LysoGb3 treatment; settings: treated for 3, 6, or 9 days; Western blot, FIG. 19
Protocol: as §1
The changes in the expression levels of vasculopathy-related proteins by Gb3 protein were confirmed using Western blotting. Particularly, the vascular endothelial cells differentiated from normal iPSCs were treated with LysoGb3 protein for 3, 6, or 9 days, and Western blotting was performed in the same manner as described in Experimental Example <3-1>. At this time, anti-TSP1 antibody (1:1000, Santacruz, USA), anti-KDR antibody (1:1000, Cell Signaling Technologies, USA), anti-eNOS antibody (1:1000, Cell Signaling Technologies, USA), anti-AKT antibody (1:1000, Cell Signaling Technologies, USA), and anti-phospho-AKT antibody (1:1000, Cell Signaling Technologies, USA) were used as antibodies.

[7] = system: vascular endothelial cells differentiated from normal iPSCs; assay: Morphology of vascular endothelial cells differentiated from normal iPSCs after LysoGb3 treatment; settings: treated for 9 days; FIG. 17
Protocol: Particularly, the vascular endothelial cells differentiated from normal iPSCs were treated with LysoGb3 protein (MATREYA LLC, USA) for 9 days, and then the morphology of the cells was confirmed.

[8] = system: SMAD2 protein phosphorylation in vascular endothelial cells differentiated from FB-iPSCs; assay: Western blotting of SMAD2 phosphorylation (TGF-β activation) in vascular endothelial cells differentiated from FB-iPSCs; settings: Fabrazyme treatment; vs normal control group; FIG. 14
Protocol: as §1
as §2, with “anti-SMAD2” for “anti-KDR antibody (1:1000, Cell Signaling Technologies, USA), anti-eNOS”, “anti-phospho-SMAD2” for “anti-TSP1”, “Cell Signaling Technologies,” for “Santacruz,”

[9] = system: LC3, Beclin 1 and ubiquitin proteins in vascular endothelial cells of patients with Fabry disease; assay: Western blotting of LC3, Beclin 1 and ubiquitin in vascular endothelial cells of patients with Fabry disease
Protocol: as §1
Particularly, vascular endothelial cells were isolated from the dermal tissue obtained from the patients with Fabry disease of Example 1, to which Fabrazyme was treated. Then, the expression levels of LC3, Beclin 1 and ubiquitin proteins were confirmed by performing Western blotting in the same manner as described in Experimental Example <3-1>. At this time, anti-LC3 antibody (1:1000, Santacruz, USA), anti-Beclin 1 antibody (1:500, Santacruz, USA), and anti-ubiquitin antibody (1:1000, Santacruz, USA) were used as antibodies.

LC3 protein in FB-iPSCs = assay: Western blotting of LC3 protein in FB-iPSCs; settings: Fabrazyme and starvation media in various combinations, vs normal cells, FIG. 4
Protocol: as §1

[10] = system: TSP1 protein in vascular endothelial cells differentiated from normal iPSCs; assay: Western blotting after activin A treatment of vascular endothelial cells differentiated from normal iPSCs; settings: activin A treatment of normal iPSC-derived vascular endothelial cells; FIG. 15
Protocol: as §1
Particularly, the vascular endothelial cells differentiated from normal iPSCs were treated with activin A to activate TGF-β, and Western blotting was performed in the same manner as described in Experimental Example <3-1>. […]

[11] = Fabrazyme and SB431542 vs Fabrazyme only, Western blot, FIG. 22
[12] = given with Fabrazyme vs Fabrazyme only, Fab #1, Fab #2 (FIGS. 24a, 24b)
[13] = vascular endothelial cells of Fabry patients, Fabrazyme treatment, vs normal cells, FIG. 5

NC(=O)c1ccc(-c2nc(-c3ccc4c(c3)OCO4)c(-c3ccccn3)[nH]2)cc1 [SB431542]
expression level of KDR protein [1, 11]: increased | expression level of TSP1 protein [1, 11]: decreased | expression level of eNOS protein [1, 11]: increased | abnormal morphology of the vascular endothelial cells differentiated from FB-iPSCs ([2]; SB431542 only or Fabrazyme and SB431542 vs Fabrazyme only, Fab #1-#4 (FIGS. 21a-21e)): restored to normal | therapeutic effect on vasculopathy in patients with Fabry disease [2]: showed a therapeutic effect | abnormal morphology of the vascular endothelial cells differentiated from FB-iPSCs [2, 12]: restored to normal | tube formation on matrigel [3]: formed a tube shape

CCCCCCCCCCCCC/C=C/[C@@H](O)[C@@H](N)CO[C@@H]1O[C@H](CO)[C@@H](O[C@@H]2O[C@H](CO)[C@H](O[C@H]3O[C@H](CO)[C@H](O)[C@H](O)[C@H]3O)[C@H](O)[C@H]2O)[C@H](O)[C@H]1O [LysoGb3 protein]
RNA expression level of KDR gene ([4]; 1 day after the treatment): increased | RNA expression level of TSP1 gene ([4]; 1 day after the treatment): increased | RNA expression level of eNOS gene ([4]; 1 day after the treatment): increased | RNA expression level of KDR gene ([4]; after 3 and 5 days): lower than those of the normal control cells | RNA expression level of eNOS gene ([4]; after 3 and 5 days): lower than those of the normal control cells | expression location (distribution) of TSP1 protein [5]: distributed throughout the cells | expression level of KDR protein [6]: decreased | expression level of TSP1 protein [6]: increased | expression level of eNOS protein [6]: decreased | phosphorylation of AKT protein [6]: decreased | morphology of the normal vascular endothelial cells [7]: changed to a widening form

CCCCc1nc(Cl)c(CO)n1Cc1ccc(-c2ccccc2-c2nn[nH]n2)cc1 [losartan]
therapeutic effect on vasculopathy in patients with Fabry disease [2]: could not be confirmed | abnormal morphology of the vascular endothelial cells differentiated from FB-iPSCs [2, 12]: had no effect

B1: Fabrazyme: recombinant alpha-galactosidase enzyme, a therapeutic agent for Fabry disease (protein, UniProt P06280 32-429, looked up)
Alpha-galactosidase A: LDNGLARTPTMGWLHWERFMCNLDCQEEPDSCISEKLFMEMAELMVSEGWKDAGYEYLCIDDCWMAPQRDSEGRLQADPQRFPHGIRQLANYVHSKGLKLGIYADVGNKTCAGFPGSFGYYDIDAQTFADWGVDLLKFDGCYCDSLENLADGYKHMSLALNRTGRSIVYSCEWPLYMWPFQKPNYTEIRQYCNHWRNFADIDDSWKSIKSILDWTSFNQERIVDVAGPGGWNDPDMLVIGNFGLSWNQQVTQMALWAIMAAPLFMSNDLRHISPQAKALLQDKDVIAINQDPLGKQGYQLRQGDNFEVWERPLSGLAWAVAMINRQEIGGPRSYTIAVASLGKGVACNPACFITQLLPVKRKLGFYEWTSRLRSHINPTGTVLLQLENTMQMSLKDLL
increased expression level of TSP1 protein by Fabry disease ([1]; Fabrazyme treatment, vs normal control group, FIG. 13): not inhibited | phosphorylation level of SMAD2 protein [8]: increased in the vascular endothelial cells derived from patients with Fabry disease compared to the normal control group regardless of the Fabrazyme treatment | characteristics of the lysosomal storage disease ([9]; after the treatment of Fabrazyme, conclusion of Experimental Example 3): not recovered | expression level of Beclin 1 protein [9, 13]: higher in vascular endothelial cells of patients with Fabry disease than in normal cells regardless of the Fabrazyme treatment | expression level of LC3 protein [9, 13]: higher in vascular endothelial cells of patients with Fabry disease than in normal cells regardless of the Fabrazyme treatment | expression level of ubiquitin protein [9, 13]: higher in vascular endothelial cells of patients with Fabry disease than in normal cells regardless of the Fabrazyme treatment | expression level of LC3 protein (LC3 protein in FB-iPSCs): higher in FB-iPSCs than in normal cells regardless of the Fabrazyme treatment

B2: activin A: growth factor used to activate TGF-β (protein, UniProt P08476 311-426, looked up)
Inhibin beta A chain: GLECDGKVNICCKKQFFVSFKDIGWNDWIIAPSGYHANYCEGECPSHIAGTSGSSLSFHSTVINHYRMRGHSPFANLKSCCVPTKLRPMSMLYYDDGQNIIKKDIQNMIVEECGCS
modifications: Inhibin beta A chain
expression of TSP1 protein [10]: increased
